The source of these data is patent publication US7071206B2, “Agents for treating neurodegenerative disorders” (Medivation, Inc., priority 1995, dated 2006).

Data set [1] concerns patients suffering from Alzheimer's disease. The data set is described as follows: Clinical trial of dimebon: blood and urea analysis. The data set is classed as in vivo, human. The source says: By the 8th week of the treatment the amount of leukocytes was normal again.
For data set [2] the test system is unchanged. The experiment in a line: Clinical trial of dimebon: EEG investigations. It is filed as in vivo, human. The settings on record: any patients except one (observation 12: increase of focal Δ-waves, retardation of the rhythm). The source says:
In observations 2, 11 and 14 the weakly positive dynamics of the EEG was manifested in weaker outbursts during hyperventilation and normalization of the zonal differences.

For a further data set, the system named is NMDA receptor. The experiment in a line: Anti-NMDA activity: prevention of convulsions and death caused by NMDA injected into the lateral ventricle of the brain. It is filed as in vivo. The settings on record: mice; i.p. 40 minutes before NMDA 0.1 μg into the lateral ventricle; probit analysis. How it is done:
The experiment was conducted in white non-inbred male mice of 20–24 g of weight. A solution of the test agent in 0.2 ml of 5% aqueous dimethylsulfoxide was injected intraperitoneally 40 minutes before the injection of NMDA into the lateral vehicle of the brain. For the mice that had been prepared beforehand for the experiment a skin flap on the head of each mouse was removed under ether anestesia and a hole was bored in the skull by a fine drill. NMDA (0.1 μg) in a volume of 1.4 μl was injected with a microsyringe. The microsyringe needle was immersed to a depth of 2.5 mm. After the operation, the wound was treated with a 2% novocaine solution. […] The accuracy of NMDA injection was monitored by injection of methylene blue. Two to 4 hours after the operation, the mice were used for a pharmacological experiment.
The animals inoculated with a saline solution were used as control.
Each dose of the agent was tested in a croup of 6–8 animals. The ED50 value (the dose of the agent preventing the development of convulsions and the death of 50% of the animals) was determined by a probit-analysis method (Litchfild J. T., Wicoxon F. J.—Pharmacol. Exp. Therap., 1949, v. 96, p. 99–114).

For data set [3], the system named is patients suffering from Alzheimer's disease. The experiment in a line: Clinical trial of dimebon tablets, Hazegawa's scale (0 score = poorest result). It is filed as in vivo, human. How it is done:
The test was carried out under the direct supervision by two of the inventors, namely E. E. Bukatina and V. Grigorieva, in 14 patients who agreed to take part in the tests, 13 of whom lived in a boarding house for senile persons and one patient lived with their family.
Alzheimer's disease was diagnosed on the basis of criteria ICD-10 NINCDS ADRDA.
Dimebon in the form of tablets (comprising 10 mg of dimebon, 30 mg of lactose, 5 mg of magnesium stearate was prescribed for oral administration in a dose of 0.02 g three to times a day. The patients living in the boarding house received dimebon for 58 days. A patient (observation 14) who was under outpatient observation continued taking the agent for a month after the completion of the tests.
Before the treatment with dimebon, and at 4 and 8 weeks after treatment the patients were examined according to Hazegawa's scale and the inventors' scale (“Social and Clinical Psychiatry”, 1992, No.4, pp.29–37) which includes the following indexes: (1) orientation in locality, time, immediate surroundings and one's own personality; (2) orientation in space; (3) memory for the past; (4) memory for the present; (5) “life in the past”; (6) (a) articulation, (b) difficulty in finding words, and distortion of words; (c) naming of objects; (d) following instructions; (7) concentration (of attention); (8) an affective sphere; (a) high spirits, (b) low spirits; (9) delirium; (10) hearing hallucinations; (11) visual hallucinations; (12) senile or senile-like confusion (when motion anxiety is accompanied by the revival of the past experience); (13) irritability; (14) anxiety; (15) asthenia; (16) headaches; (17) dizziness; (18) tearfulness; (19) spontaneous activity; (20) elementary self-service; and (21 control of sphincters.
According to the Hazegawa's scale, the 0 score indicates the poorest result; on the contrary, according to the inventors' scale, the 0 score indicates the absence of a symptom 4 score indicates the greatest manifestation thereof. […] Before the therapy was started, the patients had been independently examined by two doctors who used the inventors' scale. The examination during the treatment was carried out by the doctors using both the scales. The evaluation according to all the inventors' scale points during all the tests and their variations during the treatment with dimebon are given in the Appendix.
Both absolute evaluations of the signs under investigation (the evaluation prior to treatment is a mean evaluation of the two examinations) and variations in them were analysed in the course of therapy. In doing so, only those changes that were beyond the range of evaluations obtained in two pre-treatment examinations were taken into consideration. […]

Data set [4] shares this test system. The settings on record: general statement on the agent used in medicine as antiallergic; cited from earlier work.

SMILES strings stand for the structures.

Take `Cc1ccc2c(c1)c1c(n2CCc2ccc(C)nc2)CCN(C)C1` [No. 10, 2,8-dimethyl-5-[2-(6-methyl-3-pyridyl)ethyl]-2,3,4,5-tetrahydro-1H-pyrido[4,3-b]indole]: the amount of leukocytes entry in data set [1] (after 4 weeks, within normal limits, p<0.05) is listed as “significant reduction”; in data set [1] (by the 8th week), “normal again”. In addition, the “hematological and biochemical status” value in data set [1] (during the course of the treatment) was “No pathologic changes”. Moreover, the “changes in the EEG during the course of treatment” value in data set [2] is given as “No changes in the EEG”. Further, in the data set on NMDA receptor, the “ED50 (dose preventing the development of convulsions and the death of 50% of the animals)” value was found to be 42 ± 6 mg/kg. Moreover, the “Evaluation according to Hazegawa's scale, M +/− m” value in data set [3] (mean of 7 patients with nonprofound dementia, after 4 weeks) is reported as 20.79 +/− 1.85; in data set [3] (mean of 7 patients with nonprofound dementia, after 8 weeks), 23 +/− 1.17; in data set [3] (mean of 14 patients, after 4 weeks), 14.68 +/− 1.87; in data set [3] (mean of 14 patients, after 8 weeks) it was 15.68 +/− 2.39. In addition, in data set [4], the “toxicity and negative side-effects” value was “non-toxic and does not show any negative side-effects”.
